Source: PubChem BioAssay (NCI)
“And” between values parts separate entries of the source, which are not always exact repeats. Equal entries are not always repeated.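 Results reflect a 48-hour exposure of cells in 96-well plates to compound at five concentrations. The concentration for 50% growth inhibition is given as GI50. TGI: total growth inhibition.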

Assays:
Assay in all cases: DTP human tumour cell line panel, 48 h
SF-295 CNS = test system: SF-295 CNS
K-562 leukemia = test system: K-562 leukemia
U251 CNS = test system: U251 CNS
HL-60(TB) leukemia = test system: HL-60(TB) leukemia
CAKI-1 renal = test system: CAKI-1 renal
RXF 393 renal = test system: RXF 393 renal
NCI/ADR-RES ovarian = test system: NCI/ADR-RES ovarian
MOLT-4 leukemia = test system: MOLT-4 leukemia
SW-620 colon = test system: SW-620 colon
M14 melanoma = test system: M14 melanoma

Structure (SMILES) | GI50 (SF-295 CNS) [µM] | TGI (SF-295 CNS) [µM] | GI50 (K-562 leukemia) [µM] | TGI (K-562 leukemia) [µM] | GI50 (U251 CNS) [µM] | TGI (U251 CNS) [µM] | GI50 (HL-60(TB) leukemia) [µM] | TGI (HL-60(TB) leukemia) [µM] | GI50 (CAKI-1 renal) | TGI (CAKI-1 renal) [µM] | GI50 (RXF 393 renal) [µM] | TGI (RXF 393 renal) [µM] | GI50 (NCI/ADR-RES ovarian) | TGI (NCI/ADR-RES ovarian) [µM] | GI50 (MOLT-4 leukemia) [µM] | TGI (MOLT-4 leukemia) [µM] | GI50 (SW-620 colon) [µM] | TGI (SW-620 colon) [µM] | GI50 (M14 melanoma) [µM] | TGI (M14 melanoma) [µM]
Oc1ccc(Cc2ccc(O)c3ncccc23)c2cccnc12 | 0.294 | 0.948 | 0.0425 | > 100 | 0.0355 | > 100 | 0.263 | > 100 | 0.341 µM | > 100 | 0.154 | > 100 | 0.212 µM | > 100 | 0.231 | > 100 | 0.0417 | > 100 | 0.0423 | > 100
CC(=O)O[C@H]1C(=O)[C@@]2(C)C(C(OC(=O)c3ccccc3)[C@]3(O)CC(OC(=O)[C@H](OC(=O)CCC(=O)O)C(NC(=O)c4ccccc4)c4ccccc4)C(C)=C1C3(C)C)C1(OC(C)=O)COC1C[C@@H]2OC(=O)CCC(=O)O (some centres not stated) |  |  |  |  |  | > 100 |  | 0.868 | > 89.2 µM and 36.3 µM | > 100 |  | > 26 | > 100 µM and 26.6 µM | > 100 |  | > 20.6 |  | > 100 |  | > 100
O=C1CCC(Cc2ccc(Cl)cc2Cl)C(=O)N1 (configuration not stated) |  | > 100 |  | > 100 |  | > 100 |  | > 100 |  | > 100 |  | > 100 |  | > 100 |  | > 100 |  | > 100 |  | > 100
Nc1ccccc1C#C/C=C\C#Cc1ccccc1C(F)(F)F | 0.958 | 3.62 | 1.07 | 3.74 | 0.621 | 15.7 | 1.04 | > 27.7 | 1.1 µM | 10.1 | 1.1 | 9.98 | 0.302 µM | 2.89 | > 61.3 | > 100 | 1.5 | 41 | 0.422 | 9.74
O=c1cc(C(F)(F)F)c2cc3c(cc2o1)NCCC3 |  | > 100 |  | > 100 |  | 63.4 |  | > 100 |  | > 100 |  | 0.987 |  | > 100 |  | > 100 |  | > 100 |  | > 100
C=C1C(=O)O[C@H]2[C@H]1CC/C(COC(=O)NCc1cc3ccccc3[nH]1)=C\CC[C@@]1(C)O[C@@H]21 | 8.23 | 20.9 | 1.63 | 9.18 | 4.59 | 16.4 | 0.865 | 3.16 |  |  | 1.09 | 2.36 | 2.52 µM | 8.06 | 2.43 | 7.64 | 1.72 | 3.84 | 1.74 | 3.85
CC[C@]1(O)CC2CN(CCc3c([nH]c4ccccc34)[C@@](C(=O)OC)(c3cc4c(cc3OC)N(C)[C@H]3[C@@](O)(C(=O)OC)[C@H](OC(C)=O)[C@]5(CC)C=CCN6CC[C@]43[C@@H]65)C2)C1 (some centres not stated) | < 0.005 | 6.03 | < 0.005 | 2.26 | < 0.005 | 6.5 | < 0.005 | < 0.005 | 0.0804 µM | 21.6 |  |  | 0.0912 µM | 1.06 | < 0.005 | 0.721 | < 0.005 | 8.54 | < 0.005 | 0.0417
CC1=C(/C=C/C(C)=C\C=C\C(C)=C\C(=O)Nc2ccc3c(c2)OCO3)C(C)(C)CCC1 | 31 | > 100 | 7.56 | > 100 | 77.5 | > 100 | 1.65 | 18 | > 100 µM | > 100 | 24 | > 100 | 73 µM | > 100 | 16.1 | > 100 | > 100 | > 100 | > 100 | > 100
CC(=O)OC[C@H]1O[C@@H](n2ccc(=O)[nH]c2=O)[C@H](OC(C)=O)[C@@H]1OC(C)=O | > 100 | > 100 | > 100 | > 100 | > 100 | > 100 | > 100 | > 100 | > 100 µM | > 100 | > 100 | > 100 | > 100 µM | > 100 | > 100 | > 100 | > 100 | > 100 | > 100 | > 100
CC1=C([Se]CC(OC(=O)CC[Se]c2ccccc2)C(=O)NCCCCCC(=O)OCc2ccccc2)C(=O)c2ccccc2C1=O (configuration not stated) | 1.97 | 8.46 | 3.31 | 23.7 | 1.89 | 4.07 | 2.75 | 8.25 | 2.57 µM | 7.72 | 1.91 | 5.64 | 2.36 µM | 6.5 | 3.61 | 31.2 | 3.28 | 11.6 | 2.04 | 4.8
CCN(Cc1cccc(OC)c1)c1ccc(CO)c(Cl)c1 | 0.889 | 22 | 1.92 | > 86.5 | 0.88 | 19.9 | 14.6 | 51.7 | 0.901 µM | 35.3 | 11.9 | 28.8 | 13.7 µM | 43.4 | 21.2 | > 71.9 | 0.763 | > 100 | 16.2 | 41
COc1ccc(/C=C/C(=O)c2cc3c(N)c(C(=O)Nc4ccccc4Cl)sc3nc2C)cc1 | 3 | > 50 | 2.49 | > 50 | 3.36 | 29.6 | 1.74 | > 50 | 7.51 µM | > 50 | 0.846 | 3.6 | 1.62 µM | 16 | 4.59 | > 50 | 3.39 | > 50 | 0.481 | > 50
COc1cc2oc(=O)ccc2cc1C1OC(=O)C2OC21C (configuration not stated) |  | > 100 |  | > 100 |  | > 100 |  | > 100 |  | > 100 |  | > 100 |  | > 100 |  | > 100 |  | > 100 |  | > 100
CCCC[C@H]1C(=O)O[C@H](C)[C@H](NC(=O)c2cccc(NC=O)c2O)C(=O)O[C@@H](C)[C@@H]1OC(=O)CC(C)C |  | 21 |  | 57.7 |  | 21.9 |  | 34.2 |  | 40.9 |  | 24.6 |  | 65.6 |  | 53 |  | 68.3 |  | 47.7
OCc1cn(Cc2cccc(Cl)c2)c2ccccc12 | 0.145 | 14.5 | 1.99 | 31.9 | 0.865 | 22.6 | 5.38 | 21.1 |  | 1.87 | 2.43 | 18 | 13.7 µM | 62 | 10.6 | 44.4 | 0.586 | 33.3 | 11.3 | 29.6
O=C(O)C(=Cc1ccnc2ccccc12)C(=O)O |  | > 100 |  | > 100 |  | > 100 |  | > 100 |  | > 100 |  | > 100 |  | > 100 |  | > 100 |  | > 100 |  | > 100
Cc1cn(C2CC(F)C(CO)O2)c(=O)[nH]c1=O (configuration not stated) |  |  | > 100 | > 100 |  |  | > 100 | > 100 | > 100 µM | > 100 | > 100 | > 100 | > 100 µM | > 100 | > 100 | > 100 |  |  | > 100 | > 100
Cc1ccc(C(CN(C)C)C(=O)c2ccccc2)cc1 (configuration not stated) | 5.09 | 18.2 | 1.37 | 7.82 | 3.4 | 12.8 | 2.19 | 5.24 | 2.64 µM | 7.97 | 2.56 | 7.52 | 2.89 µM | 12.6 | 1.68 | 5.75 | 0.894 | 2.71 | 1.91 | 4.35
CC(=O)Nc1ccc(/C=C/[N+](=O)[O-])cc1 |  | 14 |  | 8.57 |  | 11.6 |  | 6.44 |  | 2.78 |  | 6.43 |  | 31.3 |  | 4.37 |  | 11 |  | 7.01
Cc1c(N=Nc2ccc([N+](=O)[O-])cc2)nc2scc(-c3ccccc3)n12 |  | > 100 |  | > 100 |  | > 100 |  | 49.2 |  | > 100 |  | > 100 |  | > 100 |  | > 100 |  | > 100 |  | > 100
CCCCn1c2cc(OCc3cn(-c4ccc(Cl)cc4)nn3)ccc2c2ccnc(C)c21 | 5.03 | 17.8 | 2.89 | > 33.3 | 5.66 | 12.6 | 5.09 | 12.6 |  |  | 6.5 | 19.8 | 6.98 µM | 29.7 | 6.07 | 23.9 | 11 | > 33.3 | 5.82 | 16.4
CN(C)CCCn1c2c(c3cnccc3c1=O)C(=O)c1ccccc1-2 | 0.737 | 5.59 | 0.474 | 12.5 | 0.425 | 11.4 | 0.514 | 4.65 | 0.376 µM | 7.01 | 0.396 | 2.05 | 0.483 µM | 10.8 | 0.232 | 2.1 | 0.209 | 10.9 | 0.391 | 2.41
C(=N\Nc1ccccn1)/c1ccccn1 | 0.359 | > 41.3 | 0.412 | > 100 | 0.445 | > 100 | 0.272 | 2.53 | 0.257 µM | > 50.7 | 0.335 |  | 0.359 µM | > 39.7 | 0.392 | > 100 | 0.557 | > 100 | 0.313 | 57.2
N#CC(=S)Nc1cccc(Cl)c1 |  | > 100 |  | > 100 |  | > 100 |  | 70.4 |  | > 100 |  | > 100 |  | > 100 |  | > 100 |  | > 100 |  | > 100
COP(=O)(OC)C(NC(c1ccccc1)c1ccccc1)c1ccc2c(c1)OCO2 (configuration not stated) | 29.5 | > 100 | 20.7 | 65 | 30.8 | > 100 | 22.8 | 56.5 | 33.2 µM | 89 | 23 | 50.1 | 30.3 µM | > 100 | 7.85 | 29.4 | 31.7 | > 100 | 23.1 | 61.3
Cc1ccc2c(c1)nc(C(=O)c1ccco1)c(C(F)(F)F)[n+]2[O-] | 64 | > 100 | 40.5 | > 100 | > 100 | > 100 | 51.4 | > 100 | 77 µM | > 100 | > 100 | > 100 | 57 µM | > 100 | > 100 | > 100 | 1.75 | 3.33 | > 100 | > 100
N[C@@H](Cc1c[nH]c2ccccc12)C(=O)NC1CCN(C(=O)c2c[nH]c3ccccc23)CC1 | > 100 | > 100 | > 100 | > 100 | > 100 | > 100 | > 100 | > 100 | > 100 µM | > 100 |  |  | > 100 µM | > 100 | 63.5 | > 100 | > 100 | > 100 | > 100 | > 100
Oc1ccc(/C=N\Nc2ccccn2)c(O)c1 | 0.318 | 0.767 | 0.482 | > 100 | 0.773 | > 100 | 0.243 | 0.783 | 0.252 µM | 0.687 | 2.24 | 53.4 | 0.364 µM | > 100 | 0.382 | 10.6 | 1.52 | > 100 |  | 
